Tests used:
HIV Bal strain = experiment: HIV RT activity in HIV Bal strain-infected MDM; type: cell-based, HIV-1; conditions: for RT activity during HIV Bal infection of MDM: 10^−7−10^−6M (FIG. 18)
Description: The cells were also incubated with SP and/or anti-SP antibody. In this case, SP was incubated with (1:1000 dilution in 10% FCS DMEM) or without anti-SP antibody at room temperature for 10 min and then the mixture was added to the cell cultures for 2 h. When the cells were treated with the combination of CP-96,345 and SP, or CP-96,345, SP and anti-SP antibody, CP-96,345 was incubated with the cell culture for 10 min and then SP was added to the MDM or CP-96,345, SP and anti-SP (1:1000 in 10% FCS DMEM) were incubated for 10 min at room temperature and the mixture was incubated with the MDM for 2 h before infection with HIV. Untreated MDM served as controls. The cells were treated prior to, during, and throughout the infection.
HIV Infection: After 2 h incubation with or without the reagents described above, the cells were infected with equal amounts of cell-free HIV based on p24 antigen content (20 ng/10^6 cells) overnight, and then washed to remove unbound virus. Fresh media containing SP and/or CP-96,345 or anti-SP antibody were added to the MDM as described above. The culture media and the reagents were replaced twice weekly. The culture supernatants were harvested for HIV reverse transcriptase (RT) activity determinations. After HIV infection, the MDM were incubated for 8 to 12 days. At the termination of the experiments, cellular RNA was extracted for assessment of HIV gag gene expression using RT-PCR or real time RT-PCR assays.
The HIV RT activity assay was carried out based on the technique of Willey et al. (30) with modification (22).

HIV LTR promoter = experiment: HIV LTR-driven CAT activity assay in U38 cells; type: cell-based
Source text: ACH-2 and U38 cell lines (25, 26) were obtained from the NIH AIDS Reagent Program. DNA extracted from ACH-2 cells was used as a positive standard for HIV DNA PCR as previously reported (27). The U38 cell line contains stably integrated, silent copies of the HIV LTR (long terminal repeat) promoter linked to a CAT (chloramphenicol acetyltransferase) gene and was used to study the effect of SP and/or CP-96,345 and R-113281 on the activation of HIV LTR promoter.
Chloramphenicol acetyltransferase (CAT) activity assay:U38 cells (2×10^6 cells) were incubated with different concentrations of SP and/or CP-96,345 or R-113281 for 48 h. Untreated U38 cells were used as a background control. Cellular proteins were extracted using 1× Reporter Lysis Bufffer (Promega Corp., Madison, Wis.). The lysates were incubated with a mixture containing 0.15 μCi of ^14C-labeled chloramphenicol (DuPont Inc., Boston, Mass.) and 200 μg/ml of n-Butyryl CoA (Promega Corp., Madison, Wis.) in a total volume of 125 μl at 37° C. for 3 h. The acetylated forms of chloramphenicol were extracted with xylene (Aldrich Chemical Company, Milwaukee, Wis.). CAT activity of each sample was quantified using a liquid-scintillation counter (Packard Instrument Company, Downers Grove, Ill.). The results were expressed as the ratio of CAT activity (CPM) of the SP and/or CP-96,345-treated or R-113281-treated U38 to that of the background control.

CCR5 mRNA = CCR5 mRNA expression in MDM (RT-PCR); type: cell-based, human; conditions: for relative CCR5 mRNA level (real-time RT-PCR): CP-96,345 10^−7 to 10^−6 M or R-113281 10^−8 to 10^−6 M, 4 hours (FIG. 15A)
Description: Total RNA was isolated from human peripheral blood MDM (10^6 cells) using Tri-Reagent (Molecular Research Center, Cincinnati, Ohio) as we previously reported (16).
Reverse transcription: Total RNA (1 μg) was reverse transcribed using Reverse Transcription System (Promega, Madison, Wis.) with the specific primers (antisense) for HIV gag (5′-[…]-[…]-3′; SEQ ID NO: 1) (27) or CCR5 (5′-[…]-3′; SEQ ID NO: 2) (32) for 1 h at 42° C. RT reactions was terminated by incubating the reaction mixture at 99° C. for 5 min and then kept at 4° C. The resulting cDNA was used as a template for PCR amplification or real time PCR quantification.
Polymerase chain reaction (PCR) analysis: PCR amplification of CCR5 and HIV gag cDNA was performed with one tenth of the cDNA for 35 cycles (CCR5) (32) or 40 cycles (gag) (27) using AmpliTaq Gold (Perkin Elmer-Cetus, Foster City, Calif.) in a GeneAmp PCR System 2400 (Perkin Elmer-Cetus). β-Actin was used as a control to monitor the amount and integrity of RNA in each sample (Clontech, Palo Alto, Calif.). Real time PCR was performed with one tenth of cDNA using ABI Prism 7700 Sequence Detection System (Perkin Elmer). The reaction mixture contained 0.25 mM of dNTPs, AmpliTaq Gold (1.5 U), 5 mM of MgCl2, 50 pmole of each of the two primers (SK38: 5′-[…]-3′ (SEQ ID NO: 3); SK39: 5+-[…]-3′; SEQ ID NO: 4), 20 pmole of the molecular beacon probe (SK19: 5′-[…]-3′; SEQ ID NO: 5) labeled with FAM (a fluorophore) at its 5′ end and DABCYL (a quencher) at the 3′ end. The cycle conditions were 95° C. 10 min followed by 40 cycles of 95° C. 15 sec and 60° C. 1 min. The known amounts of HIV DNA isolated from ACH-2 cells were used as standard controls. All standards and samples were run in duplicates. HIV gag, CCR5, β-Actin primer pairs and the probe (SK19) were synthesized by Integrated DNA Technologies, Inc. (Coralville, Iowa).

| Structure (SMILES) | viral replication by HIV RT activity vs HIV infection control (HIV Bal strain; 10^−7M, 8 days after infection (FIG. 4)) | RT activity during HIV Bal infection of MDM (HIV Bal strain) | HIV replication relative to HIV infection control (HIV Bal strain; CP-96,345 10^−6M and/or anti-SP antibody 1:1000, 12 days (FIG. 5)) | inhibition at 1 µM (HIV Bal strain; Human immunodeficiency virus 1, BAL, 192 h, 10^−6M, day 8 after HIV infection (FIG. 1B)) | inhibition at 0.1 µM (HIV Bal strain; Human immunodeficiency virus 1, BAL, 192 h, 10^−7M, day 8 after HIV infection (FIG. 1B)) | inhibition at 0.01 µM (HIV Bal strain; Human immunodeficiency virus 1, BAL, 192 h, 10^−8M, day 8 after HIV infection (FIG. 1B)) | effect on SP-enhanced HIV replication in MDM (RT activity and gag mRNA) (HIV Bal strain; SP 10^−6M, CP-96,345 10^−6M, anti-SP antibody 1:1000, 12 days (FIG. 5)) | effect on SP activation of HIV LTR-driven CAT activity (HIV LTR promoter; SP 10^−8M, CP-96,345 10^−6M, 48 h (FIG. 7)) | CCR5 mRNA in MDM (RT-PCR) (CCR5 mRNA; 10^−8 to 10^−6M, 3 h (FIG. 9)) | relative CCR5 mRNA level (real-time RT-PCR) (CCR5 mRNA) | HIV RT activity in Bal-infected MDM (HIV Bal strain; day 8 post-infection, indicated concentrations (FIG. 12)) | effect on SP activation of HIV LTR-driven CAT activity (HIV LTR promoter; SP (10^−8M), R-113281 10^−6M, 48 hours (FIG. 16)) |
| --- | --- | --- | --- | --- | --- | --- | --- | --- | --- | --- | --- | --- |
| COc1ccccc1CN[C@H]1C2CCN(CC2)[C@H]1C(c1ccccc1)c1ccccc1 [CP-96,345, 2S, 3S)-cis-2-(diphenylmethyl)-N-[(2-methoxyphenyl)-methyl]-1-azabicyclo[[2.2.2]octan-3-amine] | inhibited | inhibitory effects | down-regulated HIV replication to a level that was even lower than that of the HIV infection control | 54% | 43% | 1% | abrogated | abrogated | down-regulated | significantly down-regulated | – | – |
| COc1cc(C(=O)N2CCO[C@](CCN3CCC4(CC3)c3ccccc3C[S@+]4[O-])(c3ccc(Cl)c(Cl)c3)C2)cc(OC)c1OC.Cl [R-113281] | – | inhibitory effects | – | – | – | – | – | – | – | significantly down-regulated | significantly reduced | abrogated |

Reference: patent US20020094524A1, “Compositions and methods for inhibiting HIV infection” (priority 2000, published 2002)
